Results on one molecule are retold here after US20240285784A1, “PEPTIDIC CONJUGATES OF SN38 USEFUL IN THE TREATMENT OF CANCER” (FUNDACIÓ INSTITUT DE RECERCA BIOMÈDICA (IRB BARCELONA), priority 2020, published 2024).

*1 amine or outer side, *2 acyl side, *3 side chain or, on linkers, in order; H or OH if unused. Where a SMILES comes first, the peptide text is derived from it. Bridges are numbered along the chain shown (N, C = ends). [ ]: non-standard residue; d: D form. The star is where a group is joined. ξ: configuration not given here. X5 = CCc1c2c(nc3ccc(OC(=O)CCCCn4cc(CCCC(=O)NCCCOCCOCCOCCSCN*)nn4)cc13)-c1cc3c(c(=O)n1C2)COC(=O)[C@]3(O)CC; X4 = CC(O)CC(N[*:1])C(=O)[*:2]; Suc = O=C(CCC(=O)[*:2])[*:1]; ξE = NC(CCC(=O)O)C(=O)O; ξD = NC(CC(=O)O)C(=O)O; ξK = NCCCCC(N)C(=O)O; ξT = CC(O)C(N)C(=O)O; ξDap = NCC(N)C(=O)O; ξP = O=C(O)C1CCCN1; ξA = CC(N)C(=O)O

For data set [1], the system named is patient-derived xenograft of neuroblastoma HSJD-NB-013. The settings on record: 6 doses of 100 mg/kg intravenous at days 1, 2, 3, 4, 5 and 8; one mouse, two tumors; until day 44.
Data set [2] in a line: Evaluation of solubility in water. The format is physicochemical. The settings on record: at 1 mg/mL. On the procedure: 25 mg of SN38-linker A-MiniAp4 were dissolved in H2O, showing a completely transparent solution. This means that SN38-linker A-MiniAp4 has a solubility in water higher than 5 mg/mL, more than 400-fold the solubility in water described for SN38 (Mol. Pharmaceutics, 2016, 13, 379-390).

For the molecule `CCc1c2c(nc3ccc(OC(=O)CCCCn4cc(CCCC(=O)NCCCOCCOCCOCCSCNC(=O)CCC(=O)NC5CNC(=O)CC(C(N)=O)NC(=O)C(CC(C)O)NC(=O)C(C)NC(=O)C(C(C)O)NC(=O)C(CCC(=O)O)NC(=O)C6CCCN6C(=O)C(C)NC(=O)C(CCCCN)NC5=O)nn4)cc13)-c1cc3c(c(=O)n1C2)COC(=O)[C@]3(O)CC` (some centres unmarked) [G2B-003 (Ic)] ({X5-Suc}-[ξDap][ξK][ξA][ξP][ξE][ξT][ξA][X4][ξD]-NH2; lactam 1-9), in data set [1], the “antitumor response (tumor volume)” value is “measurable and long lasting antitumor response”. For the same molecule, the solubility in water result in data set [2] is reported as “good solubility”.
